From patent US11236086B2, “Substituted pyrrolopyridines as inhibitors of activin receptor-like kinase” (BLUEPRINT MEDICINES CORPORATION, priority 2017, dated 2022)
pIC50: −log10 of the molar value.

Columns and labels:
[1] = target: T1, ALK2R206H (mutant ALK2, N-terminally tagged with GST) (Homo sapiens, UniProt Q04771, R206H); assay: ALK binding assay (LANTHASCREEN TR-FRET competitive binding, displacement of Kinase Tracer 178); conditions: read-out: Binding Assay (IC50 class)
T1 construct: purchased Carna Bioscience or ThermoFisher 09-148 or PV6232
T1 sequence (Q04771 21-509 R206H): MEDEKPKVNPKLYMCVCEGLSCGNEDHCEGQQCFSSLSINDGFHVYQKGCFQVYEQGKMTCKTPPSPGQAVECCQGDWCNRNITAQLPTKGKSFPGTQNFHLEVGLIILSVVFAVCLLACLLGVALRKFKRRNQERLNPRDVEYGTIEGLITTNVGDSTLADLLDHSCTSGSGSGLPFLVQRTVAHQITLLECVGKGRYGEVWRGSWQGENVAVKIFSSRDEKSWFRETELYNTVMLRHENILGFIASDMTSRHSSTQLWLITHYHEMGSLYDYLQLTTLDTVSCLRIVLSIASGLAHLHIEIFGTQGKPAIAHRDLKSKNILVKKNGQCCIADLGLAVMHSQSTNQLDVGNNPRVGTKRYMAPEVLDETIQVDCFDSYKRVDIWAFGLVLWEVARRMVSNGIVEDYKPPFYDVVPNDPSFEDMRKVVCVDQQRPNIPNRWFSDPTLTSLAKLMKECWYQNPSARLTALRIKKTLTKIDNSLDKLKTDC
Description: Example 10 ALK Binding Assays
Binding assays were conducted using the LANTHASCREEN® technology (ThermoFisher Scientific). LANTHASCREEN® is a competitive binding, displacement assay where the assumed steady state occupancy of the binding site is measured using a time-resolved, fluorescence energy transfer (TR-FRET) readout between a fluorescent tracer and Europium (Eu)-tagged antibody specific for the kinase or expression tag (e.g., GST) of interest. Displacement of the tracer by a compound of the disclosure reduces, and is directly proportional to, the TR-FRET between the tracer and the antibody. Tracer was used at a concentration equal to or near to its Kd for the kinase. The Eu-tagged antibody was typically used in excess to ensure sampling of all competent protein capable of binding the tracer.
For these assays, a mutant ALK2 was used that was N-terminally tagged with GST (ALK2R206H Carna Bioscience (09-148) or ALK2R206H ThermoFisher (PV6232)); a Eu-tagged anti-GST antibody (ThermoFisher) and Kinase Tracer 178 (ThermoFisher).
In all cases, the kinase (2-5 nM) was mixed with Eu-tagged antibody (4-10 nM) mix and tracer (50 nM) were incubated with test compound titrations prepared in 100% DMSO (1% DMSO final) for 30 minutes at room temperature. All reagents and compounds were dissolved in Kinase Buffer A (ThermoFisher) to achieve the final concentration. The plates were read on a PerkinElmer EnVision® multilabel plate reader or a BioTek Synergy Neo plate reader, and the assay signal was represented as a ratio of the TR-FRET emission (λex 330 nm, λ^em […] and λ^em 665 nm). This readout was normalized to 0% and 100% inhibited control wells, plotted against inhibitor concentration, and fitted to a 4-parameter log dose response curve.
The results of this assay are shown in Table 3 in the column labelled “Binding Assay” wherein “A” represents an IC50 of less than or equal to 10 nM; “B” represents an IC50 of greater than 10 nM and less than or equal to 50 nM; and “C” represents an IC50 of greater than 50 nM. Blank values in the table indicate that the particular compound was not tested in this assay.

human ALK2 R206H = target: T2, human ALK2 R206H (Homo sapiens, UniProt Q04771, R206H); assay: Cell-based ALK2-R206H cell activity assay (Smad1-Ser463/Ser465 phosphorylation by AlphaLISA in HEK293-ALK2-R206H cells); conditions: phospho-Smad1 AlphaLISA, read-out: Cell Line (Cell Assay, IC50 class)
T2 construct: expressed in transfected cells; host or cells: HEK293 (ATCC CRL1573), lentivirus transduction, blasticidin selection
T2 sequence (Q04771 21-509 R206H): T1 sequence (Q04771 21-509 R206H)
Description: Example 11. Cell-Based ALK2-R206H Cell Activity Assay
A HEK293 (ATCC, Cat No. CRL1573) based stable cell line expressing human ALK2 R206H cDNA (synthesized by GeneScript, Piscataway, N.J.) and a FLAG tag at the C-terminus was generated by lentivirus transduction and subsequent blasticidin (Life Technologies, Cat No. A1113902) selection at 10 μg/ml for >2 wks. This cell line was named HEK293-ALK2-R206H.
B. Measurement of Smad1-Ser463/Ser465 Phosphorylation by AlphaLISA
HEK293-ALK2-R206H cells were grown, harvested, and then resuspended in serum-free, phenol red-free DMEM high glucose media (Life Technologies, Cat No. 31053). The media also contained 50 units/ml penicillin and 50 μg/ml streptomycin (Life Technologies, Cat. No. 15070-063). HEK293-ALK2-R206H cells were then plated in white opaque 384-wells microplates (2×10^4/well) (OptiPlate-384, PerkinElmer, Waltham, Mass., Cat No. 6007299) overnight (>16h) at 37° C. 5% CO2 for use in the assay.
Test compounds were first diluted to 4 mM or 0.4 mM and then serially diluted 3-fold into 10 different concentrations using DMSO. Each concentration of compound was further diluted 40-fold with phenol red-free DMEM (Life Technologies, Cat No. 31053). 2 μl of the diluted compounds were then dispensed into the HEK293-ALK2-R206H cell-containing wells of the microplates in duplicates. In this way, each compound was tested in 10 doses (3-fold serial dilution with the top concentration being 10 μM or 1 μM). Liquid handling was achieved using a Bravo Automated Liquid Handling Platform (Agilent Technologies). DMSO without compound was used as a negative control. The positive control was 1 μM LDN193189, a known bone morphogenetic protein (BMP inhibitor).
After 2-3 hours of incubation with test compound or control, the cells were lysed and signal was developed using ALPHASCREEN® SUREFIRE® SMAD1 (p-Ser463/465) cellular kinase assay kit (PerkinElmer, Cat No. TGRSM1S10K) following the manufacturer's recommended protocol. The microplates were read using Perkin Elmer ENVISION® plate reader (emission […]). The signal reflected the level of phospho-Ser/463/465-Smad1 in the lysate. The raw data were plotted using the DMSO negative and LDN193189 positive controls as the 0% and 100% inhibition, respectively. The 10-point dose response curve was used to calculate the IC50 values.
The results of this assay are shown in Table 3 in the column labeled “Cell Assay” wherein “A” represents an IC50 of less than or equal to 100 nM; “B” an IC50 of greater than 100 nM and less than or equal to 500 nM; “C” an IC50 of greater than 500 nM. Blank values in the table indicate that the particular compound was not tested in this assay.

SMILES	pIC50 [1]	pIC50 (human ALK2 R206H)
O=C(C1CC1)N1CCN(c2ccnc3[nH]c(-c4ncco4)cc23)CC1 [Compound 1]	7.30 to 8.00	< 6.30
CCC(=O)N1CCN(c2ccnc3[nH]c(-c4cnn(C)c4)cc23)CC1 [Compound 2]	≥ 8.00	< 6.30
CCOC(=O)N1CCN(c2ccnc3[nH]c(-c4cccnc4)cc23)CC1 [Compound 8]	≥ 8.00	6.30 to 7.00
CCOC(=O)N1CCN(c2ccnc3[nH]c(-c4ccn(C)n4)cc23)CC1 [Compound 12]	≥ 8.00	6.30 to 7.00
Cn1cc(-c2cc3c(N4CCN(C(=O)CC5CC5)CC4)ccnc3[nH]2)cn1 [Compound 21]	≥ 8.00	6.30 to 7.00
CCn1cc(-c2cc3c(N4CCN(C(=O)C5CC5)CC4)ccnc3[nH]2)cn1 [Compound 23]	≥ 8.00	6.30 to 7.00
Cn1cnc(-c2cc3c(N4CCN(C(=O)OC5CC5)CC4)ccnc3[nH]2)c1 [Compound 29]	≥ 8.00	≥ 7.00
Cn1cc(-c2cc3c(N4CCN(C(=O)OC5CC5)CC4)ccnc3[nH]2)cn1 [Compound 30]	≥ 8.00	≥ 7.00
CC(C)CC(=O)N1CCN(c2ccnc3[nH]c(-c4cnn(C)c4)cc23)CC1 [Compound 32]	7.30 to 8.00	6.30 to 7.00
Cc1cnc(-c2cc3c(N4CCN(C(=O)C5CC5)CC4)ccnc3[nH]2)s1 [Compound 34]	≥ 8.00	6.30 to 7.00
Cn1cc(-c2cc3c(N4CCN(C(=O)[C@@H]5C[C@H]5F)CC4)ccnc3[nH]2)cn1 [Compound 37]	≥ 8.00	≥ 7.00
CCOC(=O)N1CCN(c2ccnc3[nH]c(-c4cnn(C)c4)c(C)c23)CC1 [Compound 38]	≥ 8.00	≥ 7.00
CCOC(=O)N1CCN(c2ccnc3[nH]c(-c4cc(C)n(C)n4)cc23)CC1 [Compound 39]	≥ 8.00	6.30 to 7.00
CCCOC(=O)N1CCN(c2ccnc3[nH]c(-c4cnn(C)c4)cc23)CC1 [Compound 40]	≥ 8.00	6.30 to 7.00
CC(C)OC(=O)N1CCN(c2ccnc3[nH]c(-c4cnn(C)c4)cc23)CC1 [Compound 41]	≥ 8.00	6.30 to 7.00
CCOC(=O)N1CCN(c2ccnc3[nH]c(-c4csc(C)n4)cc23)CC1 [Compound 46]	≥ 8.00	≥ 7.00
CCOC(=O)N1CCN(c2ccnc3[nH]c(-c4cnn(C)c4)c(F)c23)CC1 [Compound 50]	≥ 8.00	≥ 7.00
CCN1CCN(c2ccc(-c3cc4c(N5CCN(C(=O)C6CC6)CC5)ccnc4[nH]3)c(OC)c2)CC1 [Compound 454]	7.30 to 8.00	
COC1(c2ccc(-c3cc4c(N5CCN(C(=O)OC6COC6)CC5)ccnc4[nH]3)nc2)CCOCC1 [Compound 457]	≥ 8.00	
CC(C)(C)OC(=O)NC1(c2ccc(-c3cc4c(N5CCN(C(=O)C6CC6)CC5)ccnc4[nH]3)cc2)CC1 [Compound 463]	≥ 8.00	
CCN1CCN(c2ccc(-c3cc4c(N5CCN(C(=O)C6CC6)CC5)ccnc4[nH]3)c3ncccc23)CC1 [Compound 471]	≥ 8.00	

More lines, now with the values ahead:

pIC50 [1]	pIC50 (human ALK2 R206H)	SMILES
≥ 8.00	6.30 to 7.00	Cn1cc(-c2cc3c(N4CCN(C(=O)C5CC5)CC4)ccnc3[nH]2)cn1 [Compound 6]
≥ 8.00	≥ 7.00	CCOC(=O)N1CCN(c2ccnc3[nH]c(-c4ccccn4)cc23)CC1 [Compound 7]
≥ 8.00	6.30 to 7.00	CCOC(=O)N1CCN(c2ccnc3[nH]c(-c4cnn(C)c4)cc23)CC1 [Compound 11]
≥ 8.00	6.30 to 7.00	CCOC(=O)N1CCN(c2ccnc3[nH]c(-c4cn(C)nn4)cc23)CC1 [Compound 13]
≥ 8.00	6.30 to 7.00	O=C(C1CC1)N1CCN(c2ccnc3[nH]c(-c4ccc(F)cc4)cc23)CC1 [Compound 19]
≥ 8.00	6.30 to 7.00	CCOC(=O)N1CCN(c2ccnc3[nH]c(-c4ccc(C)cn4)cc23)CC1 [Compound 24]
≥ 8.00	6.30 to 7.00	CCOC(=O)N1CCN(c2ccnc3[nH]c(-c4cccc(C)n4)cc23)CC1 [Compound 26]
7.30 to 8.00	6.30 to 7.00	CCC(C)C(=O)N1CCN(c2ccnc3[nH]c(-c4cnn(C)c4)cc23)CC1 (stereo not drawn) [Compound 33]
≥ 8.00	6.30 to 7.00	Cc1csc(-c2cc3c(N4CCN(C(=O)C5CC5)CC4)ccnc3[nH]2)n1 [Compound 35]
≥ 8.00	≥ 7.00	N#Cc1ccc(-c2cc3c(N4CCN(C(=O)C5CC5)CC4)ccnc3[nH]2)cc1 [Compound 45]
≥ 8.00	6.30 to 7.00	CCOC(=O)N1CCN(c2ccnc3[nH]c(-c4nc(C)cs4)cc23)CC1 [Compound 48]
≥ 8.00	6.30 to 7.00	CCOC(=O)N1CCN(c2ccnc3[nH]c(-c4ncc(C)s4)cc23)CC1 [Compound 49]
≥ 8.00		N#Cc1cc(C2(O)CCOCC2)ccc1-c1cc2c(N3CCN(C(=O)OC4COC4)CC3)ccnc2[nH]1 [Compound 465]
